# Columns and labels:
# CDK9/CycT1 = CDK9/CycT1 (Homo sapiens (Human), UniProt P50750); experiment: CDK9/CycT1 kinase assay (TR-FRET); format: biochemical; details: Method 1
# Text: 1. CDK9/CycT1 Kinase Assay:
# CDK9/CycT1—inhibitory activity of compounds of the present invention was quantified employing the CDK9/CycT1 TR-FRET assay as described in the following paragraphs:
# Recombinant full-length His-tagged human CDK9 and CycT1, expressed in insect cells and purified by Ni-NTA affinity chromatography, were purchased from Invitrogen (Cat. No PV4131). As substrate for the kinase reaction biotinylated peptide biotin-Ttds-[…]
# [1] = tested on: HeLa human cervical tumour cells; experiment: Proliferation assay (crystal violet), HeLa; format: cell-based; details: Homo sapiens, HeLa, Method 3, read-out: Inhibition of HeLa cell proliferation, IC50
# Description: (§1) Cultivated tumour cells (NCI-H460, human non-small cell lung carcinoma cells, ATCC HTB-177; DU145, hormone-independent human prostate carcinoma cells, ATCC HTB-81; HeLa-MaTu, human cervical carcinoma cells, EPO-GmbH, Berlin; HeLa-MaTu-ADR, multidrug-resistant human cervical carcinoma cells, EPO-GmbH, Berlin; HeLa human cervical tumour cells, ATCC CCL-2; Caco-2 human colorectal carcinoma, ATCC HTB-37; B16F10 mouse melanoma cells, ATCC CRL-6475) were plated at a density of 5000 cells/well (DU145, HeLa-MaTu-ADR), 3000 cells/well (NCI-H460, HeLa-MaTu, HeLa), 1500 cells/well (Caco-2), or 1000 cells/well (B16 F10) in a 96-well multititer plate in 200 μL of their respective growth medium supplemented 10% fetal calf serum. After 24 hours, the cells of one plate (zero-point plate) were stained with crystal violet (see below), while the medium of the other plates was replaced by fresh culture medium (200 μL), to which the test substances were added in various concentrations (0 M, as well as in the range of […]; the final concentration of the solvent dimethylsulfoxide was 0.5%). The cells were incubated for 4 days in the presence of test substances. Cell proliferation was determined by staining the cells with crystal violet: the cells were fixed by adding 20 μL/measuring point of an 11% glutaric aldehyde solution for 15 minutes at room temperature. After three washing cycles of the fixed cells with water, the plates were dried at room temperature. The cells were stained by adding 100 μL/measuring point of a 0.1% crystal violet solution (pH 3.0). After three washing cycles of the stained cells with water, the plates were dried at room temperature. The dye was dissolved by adding 100 μL/measuring point of a 10% acetic acid solution. The absorbance was determined by photometry at a wavelength of 595 nm. The change of cell number, in percent, was calculated by normalization of the measured values to the absorbance values of the zero-point plate (=0%) and the absorbance of the untreated (0 M) cells (=100%). The IC50 values were determined by means of a 4 parameter fit.
# [2] = tested on: Caco-2 human colorectal carcinoma; experiment: Proliferation assay (crystal violet), Caco-2; format: cell-based; details: Homo sapiens, Caco-2, Caco-2 cells, Method 3; read-out: Inhibition of Caco-2 cell proliferation, IC50
# Description: as §1
# [3] = tested on: HeLa-MaTu-ADR, multidrug-resistant human cervical carcinoma cells; experiment: Proliferation assay (crystal violet), HeLa-MaTu-ADR; format: cell-based; details: Homo sapiens, HeLa, Method 3, read-out: Inhibition of HeLa/MaTu/ADR cell proliferation, IC50
# Description: as §1
# [4] = tested on: B16F10 mouse melanoma cells; experiment: Proliferation assay (crystal violet), B16F10; format: cell-based; details: Mus musculus, B16-F10, B16F10 cells, Method 3; read-out: Inhibition of B16F10 cell proliferation, IC50
# Description: as §1
# CDK2/CycE = CDK2/CycE (Homo sapiens (Human), UniProt P24941); experiment: CDK2/CycE kinase assay (TR-FRET); format: biochemical; details: Method 2
# Text: 2. CDK2/CycE Kinase Assay:
# CDK2/CycE—inhibitory activity of compounds of the present invention was quantified employing the CDK2/CycE TR-FRET assay as described in the following paragraphs:
# Recombinant fusion proteins of GST and human CDK2 and of GST and human CycE, expressed in insect cells (Sf9) and purified by Glutathion-Sepharose affinity chromatography, were purchased from ProQinase GmbH (Freiburg, Germany). As substrate for the kinase reaction biotinylated peptide biotin-Ttds-[…]
# [5] = tested on: NCI-H460, human non-small cell lung carcinoma cells; experiment: Proliferation assay (crystal violet), NCI-H460; format: cell-based; details: Homo sapiens, NCI-H460, NCI-H460 cells, Method 3; read-out: Inhibition of NCI-H460 cell proliferation, IC50
# Description: as §1
# [6] = tested on: DU145, hormone-independent human prostate carcinoma cells; experiment: Proliferation assay (crystal violet), DU145; format: cell-based; details: Homo sapiens, DU-145, DU145 cells, Method 3; read-out: Inhibition of DU145 cell proliferation, IC50
# Description: as §1
# CDK9/CycT1, sequence (P50750 whole entry): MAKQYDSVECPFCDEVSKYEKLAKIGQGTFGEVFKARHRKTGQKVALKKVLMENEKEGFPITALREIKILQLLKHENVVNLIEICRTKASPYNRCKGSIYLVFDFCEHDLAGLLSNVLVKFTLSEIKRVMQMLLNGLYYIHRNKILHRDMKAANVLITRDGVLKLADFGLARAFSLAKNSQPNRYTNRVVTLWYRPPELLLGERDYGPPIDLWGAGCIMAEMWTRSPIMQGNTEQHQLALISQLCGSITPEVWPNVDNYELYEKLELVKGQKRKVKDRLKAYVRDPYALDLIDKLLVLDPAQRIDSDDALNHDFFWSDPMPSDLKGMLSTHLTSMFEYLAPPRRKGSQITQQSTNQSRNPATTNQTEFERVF
# CDK9/CycT1, sequence (O60563 whole entry partner): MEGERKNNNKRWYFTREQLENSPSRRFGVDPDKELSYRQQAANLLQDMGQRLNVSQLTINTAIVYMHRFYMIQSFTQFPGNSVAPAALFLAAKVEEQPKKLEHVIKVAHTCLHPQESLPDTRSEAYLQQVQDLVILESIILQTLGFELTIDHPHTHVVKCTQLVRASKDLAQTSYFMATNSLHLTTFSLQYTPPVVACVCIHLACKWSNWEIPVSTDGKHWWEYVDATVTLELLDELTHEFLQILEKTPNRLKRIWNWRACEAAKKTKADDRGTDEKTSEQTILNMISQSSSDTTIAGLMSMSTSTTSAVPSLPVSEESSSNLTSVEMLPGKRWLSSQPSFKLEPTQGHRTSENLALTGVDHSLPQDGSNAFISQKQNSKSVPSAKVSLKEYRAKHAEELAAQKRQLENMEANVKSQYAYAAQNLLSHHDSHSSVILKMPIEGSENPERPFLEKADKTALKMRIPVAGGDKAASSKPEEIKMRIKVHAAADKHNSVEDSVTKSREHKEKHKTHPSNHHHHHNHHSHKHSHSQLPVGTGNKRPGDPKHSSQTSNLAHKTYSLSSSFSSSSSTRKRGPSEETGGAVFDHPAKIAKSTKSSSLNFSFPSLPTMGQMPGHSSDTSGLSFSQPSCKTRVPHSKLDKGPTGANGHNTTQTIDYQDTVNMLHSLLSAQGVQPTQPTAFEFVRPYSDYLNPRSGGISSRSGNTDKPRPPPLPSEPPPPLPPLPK
Compound,IC50 (CDK9/CycT1),IC50 [1],IC50 [2],IC50 [3],IC50 [4],IC50 (CDK2/CycE),IC50 [5],IC50 [6]
"CS(=N)(=O)Cc1cccc(Nc2ncnc(-c3ccc(F)cc3OCc3ccc(F)cc3)n2)c1 (racemic) [Example 56, (rac)-4-{4-Fluoro-2-[(4-fluorobenzyl)oxy]phenyl}-N-{3-[(S-methylsulfonimidoyl)methyl]phenyl}-1,3,5-triazin-2-amine]",6 nM,370 nM,860 nM,780 nM,470 nM,410 nM,350 nM,370 nM
"CS(=N)(=O)Cc1cccc(Nc2ncnc(-c3ccc(F)cc3OCC3CCCCC3)n2)c1 (racemic) [Example 55, (rac)-4-[2-(Cyclohexylmethoxy)-4-fluorophenyl]-N-{3-[(S-methylsulfonimidoyl)methyl]phenyl}-1,3,5-triazin-2-amine]",10 nM,1000 nM,890 nM,850 nM,,2200 nM,980 nM,990 nM
"CS(=N)(=O)Cc1cccc(Nc2ncnc(-c3ccc(F)cc3OCc3ccc(F)c(Cl)c3)n2)c1 (racemic) [Example 97, (rac)-4-{2-[(3-Chloro-4-fluorobenzyl)oxy]-4-fluorophenyl}-N-{3-[(S-methylsulfonimidoyl)methyl]phenyl}-1,3,5-triazin-2-amine]",3 nM,940 nM,,,,200 nM,,
"COc1cc(F)ccc1-c1ncnc(Nc2cc(F)cc(CS(C)(=N)=O)c2)n1 (racemic) [Example 52, (rac)-4-(4-Fluoro-2-methoxyphenyl)-N-{3-fluoro-5-[(S-methylsulfonimidoyl)methyl]phenyl}-1,3,5-triazin-2-amine]",,410 nM,690 nM,140 nM,550 nM,1000 nM,650 nM,340 nM
"CS(=N)(=O)Cc1cccc(Nc2ncnc(-c3ccc(F)cc3OCc3cncs3)n2)c1 (racemic) [Example 81, (rac)-4-[4-Fluoro-2-(1,3-thiazol-5-ylmethoxy)phenyl]-N-{3-[(S-methylsulfonimidoyl)methyl]phenyl}-1,3,5-triazin-2-amine]",23 nM,860 nM,,,,1500 nM,,
"CS(=N)(=O)Cc1cccc(Nc2ncnc(-c3ccc(F)cc3OCc3ccc(C(F)(F)F)cc3)n2)c1 (racemic) [Example 86, (rac)-4-(4-Fluoro-2-{[4-(trifluoromethyl)benzyl]oxy}phenyl)-N-{3-[(S-methylsulfonimidoyl)methyl]phenyl}-1,3,5-triazin-2-amine]",8 nM,1100 nM,,,,1400 nM,,
"Cc1cc(COc2cc(F)ccc2-c2ncnc(Nc3cccc(CS(C)(=N)=O)c3)n2)ccc1F (racemic) [Example 96, (rac)-4-{4-Fluoro-2-[(4-fluoro-3-methylbenzyl)oxy]phenyl}-N-{3-[(S-methylsulfonimidoyl)methyl]phenyl}-1,3,5-triazin-2-amine]",3 nM,1000 nM,,,,350 nM,,
"CS(=N)(=O)Cc1cccc(Nc2ncnc(-c3ccc(F)cc3OCCCC(F)(F)F)n2)c1 (racemic) [Example 100, (rac)-4-[4-Fluoro-2-(4,4,4-trifluorobutoxy)phenyl]-N-{3-[(S-methylsulfonimidoyl)methyl]phenyl}-1,3,5-triazin-2-amine]",6 nM,920 nM,,,,1300 nM,,
"CS(=N)(=O)Cc1cccc(Nc2ncnc(-c3ccc(F)cc3OCc3cc(F)c(F)cc3F)n2)c1 (racemic) [Example 103, (rac)-4-{4-Fluoro-2-[(2,4,5-trifluorobenzyl)oxy]phenyl}-N-{3-[(S-methylsulfonimidoyl)methyl]phenyl}-1,3,5-triazin-2-amine]",7 nM,1100 nM,,,,1200 nM,,
"CS(=N)(=O)Cc1cccc(Nc2ncnc(-c3ccc(F)cc3OCc3ccon3)n2)c1 (racemic) [Example 93, (rac)-4-[4-Fluoro-2-(1,2-oxazol-3-ylmethoxy)phenyl]-N-{3-[(S-methylsulfonimidoyl)methyl]phenyl}-1,3,5-triazin-2-amine]",7 nM,680 nM,,,,2000 nM,,
"CS(=N)(=O)Cc1cccc(Nc2ncnc(-c3ccc(F)cc3OCC(F)F)n2)c1 (racemic) [Example 95, (rac)-4-[2-(2,2-Difluoroethoxy)-4-fluorophenyl]-N-{3-[(S-methylsulfonimidoyl)methyl]phenyl}-1,3,5-triazin-2-amine]",21 nM,1100 nM,,,,1800 nM,,

# Other lines, results leading:
IC50 (CDK9/CycT1),IC50 [1],IC50 [2],IC50 [3],IC50 [4],IC50 (CDK2/CycE),IC50 [5],IC50 [6],Compound
14 nM,410 nM,1300 nM,3000 nM,740 nM,1500 nM,1100 nM,460 nM,"CS(=N)(=O)Cc1cccc(Nc2ncnc(-c3ccc(F)cc3OCc3ccncc3)n2)c1 (racemic) [Example 68, (rac)-4-[4-Fluoro-2-(pyridin-4-ylmethoxy)phenyl]-N-{3-[(S-methylsulfonimidoyl)methyl]phenyl}-1,3,5-triazin-2-amine]"
8 nM,,800 nM,960 nM,1000 nM,690 nM,980 nM,900 nM,"CCOC(=O)N=S(C)(=O)Cc1cccc(Nc2ncnc(-c3cc(F)c(F)cc3OC)n2)c1 (racemic) [Example 9, (rac)-Ethyl [(3-{[4-(4,5-difluoro-2-methoxyphenyl)-1,3,5-triazin-2-yl]amino}benzyl)(methyl)oxido-λ^6-sulfanylidene]carbamate]"
28 nM,1100 nM,,,,6300 nM,,,"CCOC(=O)N=S(C)(=O)Cc1cccc(Nc2ncnc(-c3ccccc3OC)n2)c1 (racemic) [Example 25, (rac)-Ethyl [(3-{[4-(2-methoxyphenyl)-1,3,5-triazin-2-yl]amino}benzyl)(methyl)oxido-λ^6-sulfanylidene]carbamate]"
20 nM,1000 nM,,,,1800 nM,,,"COc1cc(F)ccc1-c1ncnc(Nc2cccc(CS(C)(=O)=NS(C)(=O)=O)c2)n1 (racemic) [Example 44, (rac)-N-[(3-{[4-(4-Fluoro-2-methoxyphenyl)-1,3,5-triazin-2-yl]amino}benzyl)(methyl)oxido-λ^6-sulfanylidene]methanesulfonamide]"
,300 nM,290 nM,240 nM,340 nM,430 nM,230 nM,240 nM,"CCOC(=O)N=S(C)(=O)Cc1cc(F)cc(Nc2ncnc(-c3ccc(F)cc3OC)n2)c1 (racemic) [Example 51, (rac)-Ethyl [(3-fluoro-5-{[4-(4-fluoro-2-methoxyphenyl)-1,3,5-triazin-2-yl]amino}benzyl)(methyl)oxido-λ^6-sulfanylidene]carbamate]"

# Reference: patent US9669034B2, “4-aryl-N-phenyl-1,3,5-triazin-2-amines containing a sulfoximine group” (BAYER INTELLECTUAL PROPERTY GMBH, priority 2011, dated 2017)
